Assay [1] has as its target T1, Nicotinic acetylcholine receptor alpha 5 subunit (Musca domestica) (UniProt A9XFY4).
T1 sequence (whole entry): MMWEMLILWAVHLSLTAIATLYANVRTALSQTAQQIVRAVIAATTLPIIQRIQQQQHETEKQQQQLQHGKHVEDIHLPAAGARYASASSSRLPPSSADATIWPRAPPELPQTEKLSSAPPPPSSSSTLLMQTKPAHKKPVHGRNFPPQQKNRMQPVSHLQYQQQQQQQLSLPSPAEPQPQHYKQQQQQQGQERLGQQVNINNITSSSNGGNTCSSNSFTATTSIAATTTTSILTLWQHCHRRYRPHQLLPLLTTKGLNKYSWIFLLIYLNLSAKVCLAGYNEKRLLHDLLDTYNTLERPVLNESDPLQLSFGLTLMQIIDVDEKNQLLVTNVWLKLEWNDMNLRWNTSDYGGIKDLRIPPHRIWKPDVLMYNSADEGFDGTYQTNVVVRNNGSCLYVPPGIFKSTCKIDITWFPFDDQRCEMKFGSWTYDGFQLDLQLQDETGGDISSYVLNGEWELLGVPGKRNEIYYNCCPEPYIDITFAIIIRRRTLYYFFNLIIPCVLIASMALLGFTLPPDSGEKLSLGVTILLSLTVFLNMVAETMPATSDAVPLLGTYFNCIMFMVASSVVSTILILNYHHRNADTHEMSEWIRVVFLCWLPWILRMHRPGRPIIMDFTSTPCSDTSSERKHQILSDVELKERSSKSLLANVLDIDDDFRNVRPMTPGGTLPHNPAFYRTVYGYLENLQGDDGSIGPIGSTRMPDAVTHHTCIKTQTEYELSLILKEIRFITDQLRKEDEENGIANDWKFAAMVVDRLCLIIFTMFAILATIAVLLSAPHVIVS
Put plainly: Displacement of [3H]imidacloprid from Musca domestica (house fly)-head membrane nAChR relative to N,N'-(3,3'-(hexane-1,6-diyl)bis(1-((6-chloropyridin-3-yl)methyl)imidazolidin-3-yl-2-ylidene))dinitramide. (In a radioligand displacement assay an active substance lowers the binding of a labelled ligand.)

The subject of assay [2] is Periplaneta americana. Briefly: Insecticidal activity against Periplaneta americana (American cockroach) assessed as killing compound injected into abdomen of cockroach after 24 hr in presence of 50 ug piperonyl butoxide oxidative metabolism inhibitor and 50 ug propargyl propyl benzenephosphonate inhibitor of hydrolytic measured per insect relative to compound alone. Format: functional.

Assay [3] relates to Periplaneta americana. Put plainly: Insecticidal activity against Periplaneta americana (American cockroach) assessed as killing compound injected into abdomen of cockroach after 24 hr in presence of 50 ug piperonyl butoxide oxidative metabolism inhibitor measured per insect. The class given is functional.
Assay [4] concerns Periplaneta americana. Briefly: Insecticidal activity against Periplaneta americana (American cockroach) assessed as killing compound injected into abdomen of cockroach after 24 hr measured per insect. Format: functional.
Assay [5] concerns Periplaneta americana. Put plainly: Insecticidal activity against Periplaneta americana (American cockroach) assessed as killing compound injected into abdomen of cockroach after 24 hr in presence of 50 ug propargyl propyl benzenephosphonate inhibitor of hydrolytic metabolism of tetramethrin pyrethroid measured per insect. Format: functional.
The subject of assay [6] is Periplaneta americana. Briefly: Insecticidal activity against Periplaneta americana (American cockroach) assessed as killing compound injected into abdomen of cockroach after 24 hr in presence of 50 ug piperonyl butoxide oxidative metabolism inhibitor measured per insect relative to compound alone. The class given is functional.
Assay [7] relates to Periplaneta americana. Briefly: Insecticidal activity against Periplaneta americana (American cockroach) assessed as killing compound injected into abdomen of cockroach after 24 hr in presence of 50 ug piperonyl butoxide oxidative metabolism inhibitor and 50 ug propargyl propyl benzenephosphonate inhibitor of hydrolytic measured per insect. Format: functional.
In assay [8] the target is T2, Nicotinic acetylcholine receptor alpha 5 subunit (Musca domestica, UniProt A9XFY4).
T2 sequence (A9XFY4 whole entry): T1 sequence (whole entry)
Briefly: Displacement of [3H]imidacloprid from Musca domestica (house fly)-head membrane nAChR.

Assay [9] has as its system Periplaneta americana. Put plainly: Insecticidal activity against Periplaneta americana (American cockroach) assessed as killing compound injected into abdomen of cockroach after 24 hr in presence of 50 ug propargyl propyl benzenephosphonate inhibitor of hydrolytic metabolism of tetramethrin pyrethroid measured per insect relative to compound alone. Format: functional.

Assay [10] concerns Periplaneta americana. Put plainly: Insecticidal activity against Periplaneta americana (American cockroach) assessed as changes in frequency of firing in nerve cords in nerve preparation measured for every 30 secs immediately after treatment at 9x10'-7 M by electrophysiological method. The class given is functional. As to conditions: TDE = time-dependent effect.
Assay [11] deals with Periplaneta americana. Briefly: Insecticidal activity against Periplaneta americana (American cockroach) assessed as changes in frequency of firing in nerve cords in nerve preparation measured for every 30 secs immediately after treatment at 3x10'-6 M by electrophysiological method. The class given is functional, organism-based. Particulars: TDE = time-dependent effect.

The IC50 is the concentration that gives 50% inhibition. For the molecule `O=[N+]([O-])/N=C1\N(CCCCCCCCCCN2CCN(Cc3ccc(Cl)nc3)/C2=N/[N+](=O)[O-])CCN1Cc1ccc(Cl)nc1`, the Ratio in assay [1] came to 0.11; in assay [2] it was 16; in [6], 2; in assay [9], 19. The MLD in assay [3] was determined as 1.5 nmol; in assay [4], 3.7 nmol; in [5] it was 0.19 nmol; in [7] it was 0.23 nmol. The same molecule registered an IC50 in assay [8] of 27 µM.
`O=[N+]([O-])/N=C1\N(Cc2ccc(N3CCN(Cc4ccc(Cl)nc4)/C3=N\[N+](=O)[O-])cc2)CCN1Cc1ccc(Cl)nc1`: the Ratio in assay [2] worked out at 50; in assay [6], 4; in [9], 10. Also, the MLD amounted to 6.7 nmol in assay [3], 27 nmol in assay [4], 2.7 nmol in assay [5] and 0.54 nmol in [7].
As for `O=[N+]([O-])/N=C1/N(CCCCCCCN2CCN(Cc3ccc(Cl)nc3)/C2=N/[N+](=O)[O-])CCN1Cc1ccc(Cl)nc1` [Heptamethylene 1,7-bis-imadacloprid], the Ratio in [2] amounted to 13. Besides, the values for the MLD in assay [4] and in assay [7] were 2.8 nmol and 0.22 nmol, respectively.
The matching figures for `O=[N+]([O-])/N=C1\N(CCCCCCCCN2CCN(Cc3ccc(Cl)nc3)/C2=N/[N+](=O)[O-])CCN1Cc1ccc(Cl)nc1`: 26, 4.5 nmol and 0.17 nmol.
On to `O=[N+]([O-])/N=C1\N(CCCCN2CCN(Cc3ccc(Cl)nc3)/C2=N/[N+](=O)[O-])CCN1Cc1ccc(Cl)nc1`, for which the Ratio in [2] is recorded as 2. For the same molecule, the MLD is 11 nmol in assay [4] and 6.5 nmol in [7].
For `O=[N+]([O-])NC1=NCCN1Cc1ccc(Cl)nc1` [IMIDACLOPRID], the IC50 in [8] was determined as 0.02 µM.
Take `O=[N+]([O-])/N=C1/N(Cc2ccc(Cl)nc2)CCN1Cc1cccc(N2CCN(Cc3ccc(Cl)nc3)/C2=N\[N+](=O)[O-])c1`: the Ratio in assay [2] stood at 20. Besides, the MLD in [4] stood at 20 nmol; in assay [7], 1 nmol.
As for `O=[N+]([O-])/N=C1\N(CCCCCCN2CCN(Cc3ccc(Cl)nc3)/C2=N/[N+](=O)[O-])CCN1Cc1ccc(Cl)nc1`, the Activity entry in assay [10] and in [11] was “tde” throughout. Also, the Ratio amounted to 8 in [2], 4 in assay [6] and 10 in assay [9]. Moreover, the MLD in assay [3] was found to be 0.58 nmol; in assay [4], 2.2 nmol; in assay [5], 0.22 nmol; in assay [7], 0.29 nmol. In assay [8], this molecule registered an IC50 of 3.1 µM.
Turning to `O=[N+]([O-])/N=C1\N(CC#CCN2CCN(Cc3ccc(Cl)nc3)/C2=N/[N+](=O)[O-])CCN1Cc1ccc(Cl)nc1`, the Ratio in assay [2] is reported as 12. Also, the values for the MLD in assay [4] and in assay [7] were 3.7 nmol and 0.3 nmol, respectively.
`O=[N+]([O-])/N=C1\N(CCN2CCN(Cc3ccc(Cl)nc3)/C2=N/[N+](=O)[O-])CCN1Cc1ccc(Cl)nc1`: the Ratio was 0.028 in [1], 8 in assay [2], 1 in [6] and 4 in assay [9]. The MLD was found to be 8.3 nmol in assay [3], 8.3 nmol in assay [4], 2.2 nmol in [5] and 1.1 nmol in assay [7]. In addition, in assay [8], the IC50 came to 110 µM.
Consider `O=[N+]([O-])/N=C1\NCCN1Cc1ccc(Cl)nc1` [IMIDACLOPRID], for which the Ratio in [1] turned out to be 160; in assay [2], 36; in assay [6] it was 3; in assay [9], 13. Besides, the MLD in assay [3] is listed as 0.78 nmol; in [4] it was 2.5 nmol; in assay [5], 0.19 nmol; in assay [7], 0.07 nmol.
Turning to `O=[N+]([O-])/N=C1/N(CCCCCCCCCN2CCN(Cc3ccc(Cl)nc3)/C2=N/[N+](=O)[O-])CCN1Cc1ccc(Cl)nc1`, the Ratio in [2] is given as 16. In addition, the MLD in assay [4] was 2.8 nmol; in assay [7], 0.17 nmol.
For the molecule `O=[N+]([O-])/N=C1/N(CCCN2CCN(Cc3ccc(Cl)nc3)/C2=N/[N+](=O)[O-])CCN1Cc1ccc(Cl)nc1`, in assay [2], the Ratio was 6. The MLD is on record as 4.9 nmol in assay [4] and 0.79 nmol in assay [7].
The matching figures for `O=[N+]([O-])/N=C1\N(C/C=C/CN2CCN(Cc3ccc(Cl)nc3)/C2=N/[N+](=O)[O-])CCN1Cc1ccc(Cl)nc1`: 20, 30 nmol and 1.5 nmol.
On to `O=[N+]([O-])/N=C1/N(CCCOCCCN2CCN(Cc3ccc(Cl)nc3)/C2=N/[N+](=O)[O-])CCN1Cc1ccc(Cl)nc1`, for which the Ratio in assay [1] was determined as 0.042; in assay [2], 20; in assay [6], 26; in [9], 20. The MLD in assay [3] was 0.23 nmol; in assay [4] it was 5.9 nmol; in [5] it was 0.3 nmol; in assay [7] it was 0.3 nmol. This molecule yielded a concentration for half-maximal inhibition (IC50) in [8] of 73 µM.
Take `O=[N+]([O-])/N=C1/N(CCCCCN2CCN(Cc3ccc(Cl)nc3)/C2=N/[N+](=O)[O-])CCN1Cc1ccc(Cl)nc1`: the Ratio in assay [2] came out at 24. For the same molecule, the MLD in [4] came out at 3.9 nmol; in [7] it was 0.16 nmol.

Source of the values: ChEMBL document CHEMBL3046717, “Synthesis of Alkylene-Tethered Bis-Imidacloprid Derivatives as Highly Insecticidal and Nerve-Exciting Agents with Potent Affinity to [3H] Imidacloprid-Binding Sites on Nicotinic Acetylcholine Receptor” (J Pestic Sci, 2002).
